Results taken from the NIST ThermoML archive (doi:10.1016/j.jct.2016.03.021).

Test: wn = mass fraction of the nth substance listed
Conditions: Liquid; for mass density: Vibrating tube method

NCCO [2-aminoethan-1-ol] + O
viscosity [mPa·s]
Conditions | w1 = 0.1 | w1 = 0.1001 | w1 = 0.2 | w1 = 0.3 | w1 = 0.3005 | w1 = 0.4 | w1 = 0.4001
293.15 K, 93 kPa, Concentric cylinders viscometry | 1.409 | – | 1.982 | 2.967 | – | 4.326 | –
293.15 K, 100 kPa, Falling or rolling sphere viscometry | – | 1.435 | 1.968 | – | 2.913 | – | 4.315
293.15 K, 101 kPa, Falling or rolling sphere viscometry | 1.435 | – | 1.968 | 2.913 | – | 4.315 | –
293.15 K, 5000 kPa, Falling or rolling sphere viscometry | – | 1.435 | 1.97 | – | 2.921 | – | 4.34
293.15 K, 10000 kPa, Falling or rolling sphere viscometry | – | 1.434 | 1.969 | – | 2.93 | – | 4.368
293.15 K, 20000 kPa, Falling or rolling sphere viscometry | – | 1.43 | 1.973 | – | 2.952 | – | 4.426
293.15 K, 30000 kPa, Falling or rolling sphere viscometry | – | 1.43 | 1.977 | – | 2.972 | – | 4.475
293.15 K, 40000 kPa, Falling or rolling sphere viscometry | – | 1.429 | 1.983 | – | 2.99 | – | 4.528
293.15 K, 60000 kPa, Falling or rolling sphere viscometry | – | 1.431 | 1.994 | – | 3.032 | – | 4.628
293.15 K, 80000 kPa, Falling or rolling sphere viscometry | – | 1.434 | 2.009 | – | 3.076 | – | 4.739
293.15 K, 100000 kPa, Falling or rolling sphere viscometry | – | 1.432 | 2.026 | – | 3.12 | – | 4.845
293.15 K, 120000 kPa, Falling or rolling sphere viscometry | – | 1.443 | 2.046 | – | 3.162 | – | 4.954
313.15 K, 93 kPa, Concentric cylinders viscometry | 0.8932 | – | 1.198 | 1.675 | – | 2.284 | –
313.15 K, 100 kPa, Falling or rolling sphere viscometry | – | 0.891 | 1.173 | – | 1.638 | – | 2.284
313.15 K, 101 kPa, Falling or rolling sphere viscometry | 0.891 | – | 1.173 | 1.638 | – | 2.284 | –
313.15 K, 5000 kPa, Falling or rolling sphere viscometry | – | 0.892 | 1.178 | – | 1.642 | – | 2.306
313.15 K, 10000 kPa, Falling or rolling sphere viscometry | – | 0.892 | 1.182 | – | 1.649 | – | 2.319
313.15 K, 20000 kPa, Falling or rolling sphere viscometry | – | 0.896 | 1.19 | – | 1.668 | – | 2.352
313.15 K, 30000 kPa, Falling or rolling sphere viscometry | – | 0.899 | 1.197 | – | 1.686 | – | 2.384
313.15 K, 40000 kPa, Falling or rolling sphere viscometry | – | 0.902 | 1.205 | – | 1.702 | – | 2.416
313.15 K, 60000 kPa, Falling or rolling sphere viscometry | – | 0.91 | 1.219 | – | 1.735 | – | 2.479
313.15 K, 80000 kPa, Falling or rolling sphere viscometry | – | 0.918 | 1.232 | – | 1.77 | – | 2.544
313.15 K, 100000 kPa, Falling or rolling sphere viscometry | – | 0.927 | 1.249 | – | 1.804 | – | 2.609
313.15 K, 120000 kPa, Falling or rolling sphere viscometry | – | 0.936 | 1.263 | – | 1.846 | – | 2.675
333.15 K, 93 kPa, Concentric cylinders viscometry | 0.6263 | – | 0.7832 | 1.084 | – | 1.405 | –
333.15 K, 100 kPa, Falling or rolling sphere viscometry | – | 0.615 | 0.78 | – | 1.061 | – | 1.389
333.15 K, 101 kPa, Falling or rolling sphere viscometry | 0.615 | – | 0.78 | 1.061 | – | 1.389 | –
333.15 K, 5000 kPa, Falling or rolling sphere viscometry | – | 0.614 | 0.788 | – | 1.067 | – | 1.401
333.15 K, 10000 kPa, Falling or rolling sphere viscometry | – | 0.617 | 0.792 | – | 1.075 | – | 1.41
333.15 K, 20000 kPa, Falling or rolling sphere viscometry | – | 0.622 | 0.799 | – | 1.089 | – | 1.434
333.15 K, 30000 kPa, Falling or rolling sphere viscometry | – | 0.625 | 0.807 | – | 1.103 | – | 1.453

mass density [kg/m3]
Conditions | w1 = 0.1001 | w1 = 0.2 | w1 = 0.3005 | w1 = 0.4
293.15 K, 100 kPa | 1002.5 | 1006.9 | 1012.3 | 1018.1
293.15 K, 500 kPa | 1002.7 | 1007 | 1012.5 | 1018.1
293.15 K, 1000 kPa | 1002.9 | 1007.2 | 1012.7 | 1018.3
293.15 K, 2000 kPa | 1003.3 | 1007.6 | 1013 | 1018.6
293.15 K, 5000 kPa | 1004.6 | 1008.7 | 1014.1 | 1019.6
293.15 K, 10000 kPa | 1006.7 | 1010.7 | 1016 | 1021.4
293.15 K, 15000 kPa | 1008.8 | 1012.6 | 1017.7 | 1023.1
293.15 K, 20000 kPa | 1010.9 | 1014.5 | 1019.6 | 1024.8
293.15 K, 30000 kPa | 1015.1 | 1018.4 | 1023.2 | 1028.3
293.15 K, 40000 kPa | 1019.1 | 1022.1 | 1026.6 | 1031.6
293.15 K, 50000 kPa | 1023 | 1025.8 | 1030 | 1034.8
293.15 K, 60000 kPa | 1026.9 | 1029.4 | 1033.5 | 1038.1
293.15 K, 70000 kPa | 1030.8 | 1033 | 1036.9 | 1041.4
293.15 K, 80000 kPa | 1034.5 | 1036.2 | 1040 | 1044.3
293.15 K, 90000 kPa | 1038.2 | 1039.7 | 1043.3 | 1047.5
293.15 K, 100000 kPa | 1041.8 | 1043.2 | 1046.6 | 1050.4
293.15 K, 110000 kPa | 1045.2 | 1046.4 | 1049.6 | 1053.3
293.15 K, 120000 kPa | 1048.8 | 1049.6 | 1052.6 | 1056.3
313.15 K, 100 kPa | 995.9 | 999.1 | 1003.2 | 1007.5
313.15 K, 500 kPa | 996 | 999.2 | 1003.4 | 1007.7
313.15 K, 1000 kPa | 996.3 | 999.4 | 1003.6 | 1007.9
313.15 K, 2000 kPa | 996.6 | 999.8 | 1004 | 1008.3
313.15 K, 5000 kPa | 997.9 | 1001 | 1005.1 | 1009.3
313.15 K, 10000 kPa | 1000 | 1002.9 | 1007 | 1011.2
313.15 K, 15000 kPa | 1002 | 1004.8 | 1008.8 | 1012.9
313.15 K, 20000 kPa | 1004 | 1006.7 | 1010.6 | 1014.7
313.15 K, 30000 kPa | 1008.1 | 1010.5 | 1014.3 | 1018.2
313.15 K, 40000 kPa | 1012.1 | 1014.3 | 1017.9 | 1021.7
313.15 K, 50000 kPa | 1015.9 | 1017.9 | 1021.3 | 1025.1
313.15 K, 60000 kPa | 1019.8 | 1021.5 | 1024.8 | 1028.4
313.15 K, 70000 kPa | 1023.4 | 1025 | 1028.2 | 1031.7
313.15 K, 80000 kPa | 1027 | 1028.5 | 1031.4 | 1034.8
313.15 K, 90000 kPa | 1030.6 | 1031.8 | 1034.5 | 1037.8
313.15 K, 100000 kPa | 1034.2 | 1035.1 | 1037.9 | 1041.1
313.15 K, 110000 kPa | 1037.6 | 1038.4 | 1041 | 1044
313.15 K, 120000 kPa | 1041.1 | 1041.8 | 1044.1 | 1047
333.15 K, 100 kPa | 986.3 | 988.8 | 992 | 995.3
333.15 K, 500 kPa | 986.5 | 988.9 | 992.3 | 995.6
333.15 K, 1000 kPa | 986.7 | 989.1 | 992.4 | 995.8
333.15 K, 2000 kPa | 987.1 | 989.5 | 992.8 | 996.2
333.15 K, 5000 kPa | 988.4 | 990.7 | 994 | 997.3
333.15 K, 10000 kPa | 990.5 | 992.7 | 996 | 999.3
333.15 K, 15000 kPa | 992.6 | 994.7 | 997.9 | 1001.1
333.15 K, 20000 kPa | 994.6 | 996.6 | 999.7 | 1003
333.15 K, 30000 kPa | 998.6 | 1000.5 | – | –
